The values that follow come from patent publication US9868746B2, “Substituted 5-aminothieno[2,3-C]pyridazine-6-carboxamide analogs as positive allosteric modulators of the muscarinic acetylcholine receptor M4” (Vanderbilt University, priority 2012, dated 2018).

Each structure is given as a SMILES string. Like-named read-outs stand apart in the source and are kept apart here.

This test has as its target T1, mAChR M4 (Homo sapiens, UniProt P08173).
T1 construct: expressed in transfected cells; host or cells: CHO-K1 cells stably transfected with M4 cDNA and chimeric G-protein Gqi5
T1 sequence (P08173 1-479): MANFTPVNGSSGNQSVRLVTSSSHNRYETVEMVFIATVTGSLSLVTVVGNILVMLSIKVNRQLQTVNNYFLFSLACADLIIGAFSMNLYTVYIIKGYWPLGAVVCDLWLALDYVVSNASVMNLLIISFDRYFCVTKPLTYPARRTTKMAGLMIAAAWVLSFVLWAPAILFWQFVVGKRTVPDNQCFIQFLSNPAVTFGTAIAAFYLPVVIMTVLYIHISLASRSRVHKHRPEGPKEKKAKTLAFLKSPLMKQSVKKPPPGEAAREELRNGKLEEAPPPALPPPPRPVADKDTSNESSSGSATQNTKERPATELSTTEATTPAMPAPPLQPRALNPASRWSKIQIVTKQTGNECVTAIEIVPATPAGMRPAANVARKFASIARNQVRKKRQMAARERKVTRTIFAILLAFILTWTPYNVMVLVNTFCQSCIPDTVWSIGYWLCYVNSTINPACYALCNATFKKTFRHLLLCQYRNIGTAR
The test can be described thus: mAChR M4 cell-based functional assay (calcium mobilization, potentiation of EC20 acetylcholine response). As to conditions: for Emax at 30 µM: % ACh maximum at 30 μM.

Setting [1] is: mAChR M4 cell-based functional assay, >10,000 estimated for low potency compounds without plateau, read-out: EC50.

`Nc1c(C(=O)NCc2ccc3c(c2)OCO3)sc2nnc3c(c12)CCCC3` [Example B50]: the Emax at 30 µM was determined as 49%. Under setting [1], the EC50 was 61 nM. With `Nc1c(C(=O)NCc2ccccc2)sc2nnc3c(c12)CCCC3` [Example B51], the Emax at 30 µM was determined as 51%. In addition, under setting [1], the EC50 was 130 nM. As to `COc1ccc(CNC(=O)c2sc3nnc4c(c3c2N)CCCC4)cc1` [Example B52], the Emax at 30 µM was 54%. Further, the EC50 under setting [1] was 77 nM. As for `Nc1c(C(=O)NCc2ccc3c(c2)OC(F)(F)O3)sc2nnc3c(c12)CCCC3` [Example B53], the Emax at 30 µM worked out at 42%. Besides, the EC50 under setting [1] is 170 nM. As to `Nc1c(C(=O)NCC2CC2)sc2nnc3c(c12)CCCC3` [Example B54], the Emax at 30 µM amounted to 37%. The EC50 under setting [1] is 790 nM. On to `COc1ccc(C2CC2NC(=O)c2sc3nnc4c(c3c2N)CCCC4)cc1` (stereo not shown) [Example B55], for which the Emax at 30 µM came to 48%. Also, the EC50 under setting [1] was 47 nM. As to `Nc1c(C(=O)NCc2ccc3c(c2)OCCO3)sc2nnc3c(c12)CCCC3` [Example B56], the Emax at 30 µM is 54%. Moreover, the EC50 under setting [1] is 72 nM. For `Nc1c(C(=O)NCc2cccc(F)c2F)sc2nnc3c(c12)CCCC3` [Example B57], in that order: 47% and 100 nM. Take `CS(=O)(=O)c1ccc(CNC(=O)c2sc3nnc4c(c3c2N)CCCC4)cc1` [Example B58]: the Emax at 30 µM came out at 64%. Moreover, the EC50 under setting [1] was 240 nM. In the case of `Cc1nnc2sc(C(=O)N3CC(NCc4ccc(F)cc4)C3)c(N)c2c1C` [Example B59], the Emax at 30 µM amounted to 56%. Moreover, the EC50 under setting [1] was 4100 nM. With `Cc1nnc2sc(C(=O)N3CC(NCc4ccncc4)C3)c(N)c2c1C` [Example B60], the Emax at 30 µM was determined as 41%. Further, the EC50 under setting [1] is more than 10000 nM.

Consider `COc1ccc(CNC2CN(C(=O)c3sc4nnc(C)c(C)c4c3N)C2)cc1` [Example B61], for which the Emax at 30 µM was found to be 55%. Besides, the EC50 under setting [1] was 4600 nM. On to `Cc1nnc2sc(C(=O)N3CC(NCc4cccnc4)C3)c(N)c2c1C` [Example B62], for which the Emax at 30 µM is 34%. In addition, the EC50 under setting [1] was more than 10000 nM.

For `Cc1nnc2sc(C(=O)N3CC(NCCC(C)C)C3)c(N)c2c1C` [Example B63], the Emax at 30 µM worked out at 41%. In addition, the EC50 under setting [1] was more than 10000 nM. `Cc1nnc2sc(C(=O)N3CC(NCc4ccco4)C3)c(N)c2c1C` [Example B64]: the Emax at 30 µM is 41%. Besides, under setting [1], the EC50 is more than 10000 nM. `Cc1nnc2sc(C(=O)N3CC(NCc4ccccc4)C3)c(N)c2c1C` [Example B65]: the Emax at 30 µM was determined as 56%. The EC50 under setting [1] was 3600 nM. `Cc1nnc2sc(C(=O)NCc3ccc(S(=O)(=O)C(F)(F)F)cc3)c(N)c2c1C` [Example B66]: the Emax at 30 µM was found to be 62%.

In the case of `Cc1nnc2sc(C(=O)Nc3ccc4cn[nH]c4c3)c(N)c2c1C` [Example B67], the Emax at 30 µM worked out at 51%. Moreover, under setting [1], the EC50 was 350 nM.

In the case of `Cc1nnc2sc(C(=O)NC(C)(C)C)c(N)c2c1C` [Example B68], the Emax at 30 µM amounted to 68%. The EC50 under setting [1] was 2600 nM. On to `Cc1nnc2sc(C(=O)N3CC[C@H](F)C3)c(N)c2c1C` [Example B69], for which the Emax at 30 µM was determined as 48%. In addition, the EC50 under setting [1] was more than 10000 nM. Regarding `Cc1nnc2sc(C(=O)Nc3nccs3)c(N)c2c1C` [Example B70], the Emax at 30 µM stood at 37%. The EC50 under setting [1] was 1200 nM. In the case of `Cc1cncc(NC(=O)c2sc3nnc(C)c(C)c3c2N)c1` [Example B71], the Emax at 30 µM was determined as 31%. Also, the EC50 under setting [1] was 460 nM. Regarding `COc1cncc(NC(=O)c2sc3nnc(C)c(C)c3c2N)c1` [Example B72], the Emax at 30 µM came to 30%. Further, the EC50 under setting [1] was 380 nM. Turning to `COc1ccc(C(C)CNC(=O)c2sc3nnc(C)c(C)c3c2N)cc1` (stereo not shown) [Example B73], the Emax at 30 µM came out at 40%. Moreover, under setting [1], the EC50 is 350 nM. As to `Cc1nnc2sc(C(=O)NCc3ccc(CS(C)(=O)=O)cc3)c(N)c2c1C` [Example B74], the Emax at 30 µM turned out to be 69%. The EC50 under setting [1] was 170 nM. As to `COc1ccc(C2(CNC(=O)c3sc4nnc(C)c(C)c4c3N)CC2)cc1` [Example B75], the Emax at 30 µM worked out at 41%. Also, under setting [1], the EC50 was 360 nM. In the case of `CS(=O)(=O)c1ccc(CNC(=O)c2sc3nnc(Cl)cc3c2N)cc1` [Example B76], the Emax at 30 µM was determined as 55%. Besides, the EC50 under setting [1] is 490 nM. Turning to `Cc1nnc2sc(C(=O)N[C@@H]3CCN(S(C)(=O)=O)C3)c(N)c2c1C` [Example B77], the Emax at 30 µM came out at 53%. Besides, the EC50 under setting [1] is 3500 nM. `Cc1nnc2sc(C(=O)NCc3ccc(F)c(S(C)(=O)=O)c3)c(N)c2c1C` [Example B78]: the Emax at 30 µM was determined as 63%. Further, the EC50 under setting [1] was 230 nM. Take `COc1ccc(C2CC2N(C)C(=O)c2sc3nnc(C)c(C)c3c2N)cc1` (stereo not shown) [Example B79]: the Emax at 30 µM was determined as 35%. The EC50 under setting [1] is more than 10000 nM. For `Cc1nnc2sc(C(=O)NC3CN(S(C)(=O)=O)C3)c(N)c2c1C` [Example B80], in that order: 68% and 210 nM. As for `Cc1nnc2sc(C(=O)NC3CNC3)c(N)c2c1C` [Example B81], the Emax at 30 µM is 34%. In addition, the EC50 under setting [1] is more than 10000 nM.

Regarding `Cc1nnc2sc(C(=O)N[C@H]3CCN(S(C)(=O)=O)C3)c(N)c2c1C` [Example B82], the Emax at 30 µM came out at 59%. Also, the EC50 under setting [1] is 460 nM. `Cc1nnc2sc(C(=O)NC3CN(C(=O)OC(C)(C)C)C3)c(N)c2c1C` [Example B83]: the maximum response (Emax) at 30 µM was determined as 58%. Besides, the concentration giving a half-maximal response (EC50) under setting [1] was 29 nM. For the compound `Cc1nnc2sc(C(=O)NC3CCC3)c(N)c2c1C` [Example B84], the Emax at 30 µM was 61%. Also, the EC50 under setting [1] was 1000 nM. As for `Cc1nnc2sc(C(=O)NCc3c(F)ccc(F)c3Cl)c(N)c2c1C` [Example B85], the Emax at 30 µM was 58%. Also, the EC50 under setting [1] is 47 nM. In the case of `Cc1nnc2sc(C(=O)NCc3ccc4ccccc4c3)c(N)c2c1C` [Example B86], the Emax at 30 µM was 62%. In addition, the EC50 under setting [1] was 80 nM. For `Cc1nnc2sc(C(=O)NC3CCCC3)c(N)c2c1C` [Example B87], in that order: 57% and 280 nM. For `Cc1cc(NC(=O)c2sc3nnc(C)c(C)c3c2N)ccn1` [Example B88], in that order: 43% and 400 nM.

Consider `Cc1nnc2sc(C(=O)NCc3cnn(C)c3)c(N)c2c1C` [Example B89], for which the Emax at 30 µM amounted to 58%. Also, the EC50 under setting [1] is 320 nM. Turning to `COc1ccc(CNC(=O)c2sc3nnc(C)c(C)c3c2N)cc1F` [Example B90], the maximal effect (Emax) at 30 µM amounted to 58%. Regarding `COCc1ccc(CNC(=O)c2sc3nnc(C)c(C)c3c2N)cc1` [Example B91], the Emax at 30 µM was 53%. The EC50 under setting [1] is 97 nM. As for `Cc1nnc2sc(C(=O)NCc3ccc(S(=O)(=O)C4CC4)cc3)c(N)c2c1C` [Example B92], the Emax at 30 µM came out at 53%. Also, the EC50 (EC50 (nM)) is 23 nM. For the compound `Cc1nnc2sc(C(=O)NCCc3ccncc3)c(N)c2c1C` [Example B93], the Emax at 30 µM is 49%. The EC50 under setting [1] is 2300 nM. For the compound `Cc1nnc2sc(C(=O)NCCc3ccccn3)c(N)c2c1C` [Example B94], the Emax at 30 µM stood at 47%. Moreover, the EC50 under setting [1] was 5000 nM.

With `Cc1nnc2sc(C(=O)NCc3ccc(O)cc3)c(N)c2c1C` [Example B95], the Emax at 30 µM worked out at 66%. Also, the EC50 under setting [1] was 47 nM.

For `Cc1nnc2sc(C(=O)NC3CCCOC3)c(N)c2c1C` (stereo not shown) [Example B96], the Emax at 30 µM was determined as 64%. The EC50 under setting [1] is more than 10000 nM. As for `Cc1nnc2sc(C(=O)NC3CCCCC3)c(N)c2c1C` [Example B97], the Emax at 30 µM amounted to 75%. The EC50 under setting [1] was 1500 nM. For `Cc1ccc(S(=O)(=O)N2CC(NC(=O)c3sc4nnc(C)c(C)c4c3N)C2)s1` [Example B98], in that order: 66% and 63 nM. With `Cc1nnc2sc(C(=O)NC3CN(S(=O)(=O)c4ccco4)C3)c(N)c2c1C` [Example B99], the Emax at 30 µM worked out at 65%. The EC50 under setting [1] was 160 nM.

On to `Cc1nnc2sc(C(=O)NC3CN(S(=O)(=O)c4ccoc4)C3)c(N)c2c1C` [Example B100], for which the Emax at 30 µM was 68%. For the same compound, the EC50 under setting [1] was 180 nM. For the compound `Cc1nc(C(F)(F)F)c(S(=O)(=O)N2CC(NC(=O)c3sc4nnc(C)c(C)c4c3N)C2)s1` [Example B101], the Emax at 30 µM is 66%. The EC50 under setting [1] was 84 nM. In the case of `Cc1nnc2sc(C(=O)NCc3ccco3)c(N)c2c1C` [Example B102], the Emax at 30 µM worked out at 81%. For the same compound, under setting [1], the EC50 was 1300 nM.

For `Cc1nc(C)c(S(=O)(=O)N2CC(NC(=O)c3sc4nnc(C)c(C)c4c3N)C2)s1` [Example B103], the Emax at 30 µM turned out to be 69%. The EC50 under setting [1] was 94 nM. For `Cc1nnc2sc(C(=O)NCc3ccc(C(C)S(C)(=O)=O)cc3)c(N)c2c1C` (stereo not shown) [Example B104], in that order: 63% and 150 nM.

Consider `Cc1nnc2sc(C(=O)NCc3ccc(C4(S(C)(=O)=O)CC4)cc3)c(N)c2c1C` [Example B105], for which the Emax at 30 µM worked out at 66%. Besides, the EC50 under setting [1] is 55 nM. For `Cc1nnc2sc(C(=O)NCc3ccc(C(C)(O)C(F)(F)F)cc3)c(N)c2c1C` (stereo not shown) [Example B106], in that order: 71% and 20 nM.
